For 31 compounds, EC50 results are on record in patent publication US10385022B2, “3-amino-pyridines as GPBAR1 agonists” (HOFFMANN-LA ROCHE INC., priority 2011, dated 2019).

The target of the test is human GPBAR1 receptor (Homo sapiens (Human), UniProt Q8TDU6). Description: functional cAMP assay in CHO-dhfr(minus) cells expressing human GPBAR1 receptors. In kind it is cell-based. The settings on record: CHO-dhfr(minus) cells expressing human GPBAR1, 30 min at 30° C. An outline of the steps: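 Functional cAMP responses in a human GPBAR1-transfected CHO-dhfr- clone, picked using lithocholic acid as agonist, gave the EC50 values. Parallel testing in untransfected CHO cells served as a specificity control.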
(Changes in cAMP serve as a functional read-out for many G protein-coupled receptors.)

Chain of human GPBAR1 receptor (Q8TDU6 whole entry): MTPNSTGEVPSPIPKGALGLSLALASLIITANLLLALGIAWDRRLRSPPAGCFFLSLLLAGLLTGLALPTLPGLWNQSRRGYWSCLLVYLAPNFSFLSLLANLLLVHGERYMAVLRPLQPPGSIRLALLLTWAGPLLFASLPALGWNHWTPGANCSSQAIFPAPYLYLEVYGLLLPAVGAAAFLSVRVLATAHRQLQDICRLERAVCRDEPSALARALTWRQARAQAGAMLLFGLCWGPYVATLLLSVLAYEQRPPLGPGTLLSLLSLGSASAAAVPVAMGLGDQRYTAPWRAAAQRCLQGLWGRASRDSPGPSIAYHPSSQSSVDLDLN

On to `COCCS(=O)(=O)c1cc(C(=O)N(C)c2cnccc2-c2ccc(F)cc2OC)cc(C(F)(F)F)c1` [Example 217, N-[4-(4-Fluoro-2-methoxy-phenyl)-pyridin-3-yl]-3-(2-methoxy-ethanesulfonyl)-N-methyl-5-trifluoromethyl-benzamide], for which the EC50 was determined as 31 nM.
In turn, `COc1cc(F)ccc1-c1ccncc1N(C)C(=O)c1cc(C(F)(F)F)cc(S(=O)(=O)CCO)c1` [Example 218, N-[4-(4-Fluoro-2-methoxy-phenyl)-pyridin-3-yl]-3-(2-hydroxy-ethanesulfonyl)-N-methyl-5-trifluoromethyl-benzamide] displayed an EC50 of 73 nM. This EC50 lies about 2.4-fold higher than the previous one.
On to `CS(=O)(=O)c1cc(C(=O)N(CC(N)=O)c2cnccc2-c2ccccc2F)cc(C(F)(F)F)c1` [Example 219, N-Carbamoylmethyl-N-[4-(2-fluoro-phenyl)-pyridin-3-yl]-3-methanesulfonyl-5-trifluoromethyl-benzamide], for which the midpoint of the response, the EC50, lay at 3030 nM.
`CCc1cc(-c2ccccc2C)c(N(C)C(=O)c2cc(C(F)(F)F)cc(C(F)(F)F)c2)cn1` [Example 220, N-(6-Ethyl-4-o-tolyl-pyridin-3-yl)-N-methyl-3,5-bis-trifluoromethyl-benzamide] displayed an EC50 of 1980 nM.
`COc1cc(F)ccc1-c1ccncc1N(C)C(=O)c1cc(C(F)(F)F)nc(S(C)(=O)=O)c1` [Example 221, N-[4-(4-Fluoro-2-methoxy-phenyl)-pyridin-3-yl]-2-methanesulfonyl-N-methyl-6-trifluoro-methyl-isonicotinamide] displayed an EC50 of 59 nM.
For the compound `CN(C(=O)c1cc(C(F)(F)F)cc(C(F)(F)F)c1)c1cnccc1-c1ccccc1N` [Example 222, N-[4-(2-Amino-phenyl)-pyridin-3-yl]-N-methyl-3,5-bis-trifluoromethyl-benzamide], the response was half-maximal at 183 nM (EC50).
As for `COc1cccc(F)c1-c1ccncc1N(CC(F)(F)F)C(=O)c1cc(C(F)(F)F)cc(S(C)(=O)=O)c1` [Example 223, N-[4-(2-Fluoro-6-methoxy-phenyl)-pyridin-3-yl]-3-methanesulfonyl-N-(2,2,2-trifluoro-ethyl)-5-trifluoromethyl-benzamide], the EC50 came to 46 nM.
The same measure for `COC(=O)CCS(=O)(=O)c1cc(C(=O)N(C)c2cnccc2-c2ccc(F)cc2OC)cc(C(F)(F)F)c1` [Example 224, 3-(3-{[4-(4-Fluoro-2-methoxy-phenyl)-pyridin-3-yl]-methyl-carbamoyl}-5-trifluoromethyl-benzenesulfonyl)-propionic acid methyl ester]: 46 nM; for `COC(=O)CCSc1cc(C(=O)N(C)c2cnccc2-c2ccc(F)cc2OC)cc(C(F)(F)F)c1` [Example 225, 3-(3-{[4-(4-Fluoro-2-methoxy-phenyl)-pyridin-3-yl]-methyl-carbamoyl}-5-trifluoromethyl-phenylsulfanyl)-propionic acid methyl ester]: 241 nM; for `COc1cc(F)ccc1-c1ccncc1N(C)C(=O)c1cc(O)cc(C(F)(F)F)c1` [Example 226, N-[4-(4-Fluoro-2-methoxy-phenyl)-pyridin-3-yl]-3-hydroxy-N-methyl-5-trifluoromethyl-benzamide]: 958 nM.
The same measure for `COc1cc(F)ccc1-c1ccncc1N(C)C(=O)c1cc(Cl)cc(OC(F)(F)F)c1` [Example 227, 3-Chloro-N-[4-(4-fluoro-2-methoxy-phenyl)-pyridin-3-yl]-N-methyl-5-trifluoromethoxy-benzamide]: 93 nM; for `COc1cc(F)ccc1-c1ccncc1N(CC#N)C(=O)c1cc(C(F)(F)F)cc(S(C)(=O)=O)c1` [Example 228, N-Cyanomethyl-N-[4-(4-fluoro-2-methoxy-phenyl)-pyridin-3-yl]-3-methanesulfonyl-5-trifluoromethyl-benzamide]: 57 nM.
The figure for `COCCN(C(=O)c1cc(C(F)(F)F)cc(S(C)(=O)=O)c1)c1cnccc1-c1c(F)cccc1OC` [Example 229, N-[4-(2-Fluoro-6-methoxy-phenyl)-pyridin-3-yl]-3-methanesulfonyl-N-(2-methoxy-ethyl)-5-trifluoromethyl-benzamide] is 27 nM.
The compound `COc1cc(F)ccc1-c1ccnc(C)c1N(C)C(=O)c1cc(C(F)(F)F)cc(S(C)(=O)=O)c1` [Example 230, N-[4-(4-Fluoro-2-methoxy-phenyl)-2-methyl-pyridin-3-yl]-3-methanesulfonyl-N-methyl-5-trifluoromethyl-benzamide] displayed a half-maximal effective concentration (EC50) of 73 nM.
Consider `COc1cc(F)ccc1-c1ccncc1N(Cc1cc(C)on1)C(=O)c1cc(C(F)(F)F)cc(S(C)(=O)=O)c1` [Example 231, N-[4-(4-Fluoro-2-methoxy-phenyl)-pyridin-3-yl]-3-methanesulfonyl-N-(5-methyl-isoxazol-3-ylmethyl)-5-trifluoromethyl-benzamide], for which the response was half-maximal at 3500 nM (EC50).
`COc1cc(F)ccc1-c1ccncc1N(C)C(=O)c1cc(SCCNC(=O)OC(C)(C)C)cc(C(F)(F)F)c1` [Example 234, [2-(3-{[4-(4-Fluoro-2-methoxy-phenyl)-pyridin-3-yl]-methyl-carbamoyl}-5-trifluoromethyl-phenylsulfanyl)-ethyl]-carbamic acid tert-butyl ester] returned an EC50 of 405 nM.
For the compound `COc1cc(F)ccc1-c1ccncc1N(C)C(=O)c1cc(C2COC2)cc(C(F)(F)F)c1` [Example 235, N-[4-(4-Fluoro-2-methoxy-phenyl)-pyridin-3-yl]-N-methyl-3-oxetan-3-yl-5-trifluoromethyl-benzamide], the EC50 was determined as 85 nM.
On to `COCCOc1cc(C(=O)N(C)c2cnccc2-c2ccc(F)cc2OC)cc(C(F)(F)F)c1` [Example 236, N-[4-(4-Fluoro-2-methoxy-phenyl)-pyridin-3-yl]-3-(2-methoxy-ethoxy)-N-methyl-5-trifluoromethyl-benzamide], for which the EC50 is 886 nM.
`COc1cc(F)ccc1-c1ccncc1N(C)C(=O)c1cc(SCCN)cc(C(F)(F)F)c1` [Example 237, 3-(2-Amino-ethylsulfanyl)-N-[4-(4-fluoro-2-methoxy-phenyl)-pyridin-3-yl]-N-methyl-5-trifluoromethyl-benzamide] yielded an EC50 of 340 nM. Against the preceding compound, the EC50 is about 2.6-fold lower.
The figure for `COc1cc(F)ccc1-c1ccncc1N(C)C(=O)c1cc(Cl)cc(C2CC2)c1` [Example 238, 3-Chloro-5-cyclopropyl-N-[4-(4-fluoro-2-methoxy-phenyl)-pyridin-3-yl]-N-methyl-benzamide] is 23 nM; for `COc1cc(F)ccc1-c1ccncc1N(C)C(=O)c1cc(SCCCC(=O)O)cc(C(F)(F)F)c1` [Example 239, 4-(3-{[4-(4-Fluoro-2-methoxy-phenyl)-pyridin-3-yl]-methyl-carbamoyl}-5-trifluoromethyl-phenylsulfanyl)-butyric acid] it is 508 nM.
The same measure for `COc1cc(F)ccc1-c1ccncc1N(C)C(=O)c1cc(OCCO)cc(C(F)(F)F)c1` [Example 240, N-[4-(4-Fluoro-2-methoxy-phenyl)-pyridin-3-yl]-3-(2-hydroxy-ethoxy)-N-methyl-5-trifluoromethyl-benzamide]: 1150 nM; for `COc1cc(F)ccc1-c1ccncc1N(C)C(=O)c1cc(C(F)(F)F)cc(S(=O)(=O)CCN)c1` [Example 241, 3-(2-Amino-ethanesulfonyl)-N-[4-(4-fluoro-2-methoxy-phenyl)-pyridin-3-yl]-N-methyl-5-trifluoromethyl-benzamide]: 105 nM; for `CN(C(=O)c1cc(C(F)(F)F)cc(S(C)(=O)=O)c1)c1cnccc1-c1ccccc1OC1CC1` [Example 242, N-[4-(2-Cyclopropoxy-phenyl)-pyridin-3-yl]-3-methanesulfonyl-N-methyl-5-trifluoromethyl-benzamide]: 11 nM.
Regarding `COc1cc(F)ccc1-c1ccncc1N(C)C(=O)c1cc(SCCCCC(=O)O)cc(C(F)(F)F)c1` [Example 243, 5-(3-{[4-(4-Fluoro-2-methoxy-phenyl)-pyridin-3-yl]-methyl-carbamoyl}-5-trifluoromethyl-phenylsulfanyl)-pentanoic acid], the EC50 worked out at 610 nM.
The figure for `CS(=O)(=O)c1cc(C(=O)N(CCO)c2cnccc2-c2ccccc2F)cc(C(F)(F)F)c1` [Example 244, N-[4-(2-Fluoro-phenyl)-pyridin-3-yl]-N-(2-hydroxy-ethyl)-3-methanesulfonyl-5-trifluoromethyl-benzamide] is 1150 nM.
The figure for `COc1cc(F)ccc1-c1ccncc1N(C)C(=O)c1cc(C2CN(C(=O)OC(C)(C)C)C2)cc(C(F)(F)F)c1` [Example 245, 3-(3-{[4-(4-Fluoro-2-methoxy-phenyl)-pyridin-3-yl]-methyl-carbamoyl}-5-trifluoromethyl-phenyl)-azetidine-1-carboxylic acid tert-butyl ester] is 933 nM.
As to `COc1cc(F)ccc1-c1ccncc1N(C)C(=O)c1cc(Br)cc(OC(F)(F)F)c1` [Example 246, 3-Bromo-N-[4-(4-fluoro-2-methoxy-phenyl)-pyridin-3-yl]-N-methyl-5-trifluoromethoxy-benzamide], the EC50 stood at 168 nM.
The same measure for `COc1cc(F)ccc1-c1ccncc1N(C)C(=O)c1cc(C(F)(F)F)cc(S(=O)(=O)CCCC(=O)O)c1` [Example 247, 4-(3-{[4-(4-Fluoro-2-methoxy-phenyl)-pyridin-3-yl]-methyl-carbamoyl}-5-trifluoromethyl-benzenesulfonyl)-butyric acid]: 413 nM; for `COc1cc(F)ccc1-c1ccncc1N(C)C(=O)c1cc(C(F)(F)F)cc(S(=O)(=O)CCCCC(=O)O)c1` [Example 248, 5-(3-{[4-(4-Fluoro-2-methoxy-phenyl)-pyridin-3-yl]-methyl-carbamoyl}-5-trifluoromethyl-benzenesulfonyl)-pentanoic acid]: 323 nM; for `COc1cc(F)ccc1-c1ccncc1N(C)C(=O)c1cc(C(F)(F)F)cc(S(=O)(=O)N2CCC2)c1` [Example 249, 3-(Azetidine-1-sulfonyl)-N-[4-(4-fluoro-2-methoxy-phenyl)-pyridin-3-yl]-N-methyl-5-trifluoromethyl-benzamide]: 19 nM.

As a reminder, the EC50 is the concentration needed to bring the measured effect to its halfway point. The low end stands for a more potent agent, the high end for a less potent agent.
